Source: US10233157B2, “SIK inhibitor for use in a method of treating an inflammatory and/or immune disorder” (Dana-Farber Cancer Institute, Inc., priority 2012, dated 2019)
“Also recorded” adds a separate entry of the source.

Key:
[1] = test system: AMPK-related kinases; type: biochemical; details: members of the AMPK subfamily other than SIKs
Method: Recombinant SIK1, SIK2, SIK3 were expressed as GST-fusion proteins in HEK293 cells and purified on a glutathione-Sepharose column. […] FLAG-CRTC3 was immunoprecipitated using anti-FLAG M2 agarose, washed in kinase buffer (50 mM Tris/HCl pH 7.4, 10 mM Mg acetate, 0.1 mM EGTA, 2 mM DTT) and reactions initiated by adding 4 U/ml recombinant kinase with 0.1 mM ATP (specific activity 3000 cpm/pmol). Phosphorylation of CRTC3 was monitored by autoradiography as well as immunoblotting using phosphospecific antibodies raised against Ser162, Ser329 and Ser370. […] Kinase profiling was performed as previously described (7) and performed by the International Centre for Kinase Profiling (www.kinase-screen.mrc.ac.uk).

[2] = test system: LPS-stimulated macrophages; experiment: Cytokine secretion in TLR-stimulated bone-marrow derived macrophages; type: cell-based, mouse
Method: (§1) Bone-marrow derived macrophages were differentiated for 7 days in DMEM supplemented with 5 ng/ml recombinant M-CSF (R&D systems), 2 mM glutamine, 10% foetal calf serum, penicillin and streptomycin.
(§2) Following stimulation with ligands, the cell culture medium was removed, clarified by centrifugation for 10 min at 14000×g and the concentration of TNFα, IL-6, IL-10, IL-12p40, and RANTES were measured using the Bio-Plex Pro Assay system from Bio-Rad. IFNβ was measured using an ELISA kit from R&D Systems according to the manufacturers' instructions.
RNA was extracted using the RNeasy Micro Kit (Qiagen). cDNA was generated using the iScript cDNA synthesis kit and quantified by qPCR using the SsoFast EvaGreen Supermix (Bio-Rad Laboratories). […] Fold-induction for each gene was reported relative to untreated control cells, which was set to 1. The concentrations of TNFα, IL-6, IL-10, IL-12p40, and RANTES in culture supernatants were measured using the Bio-Plex Pro Assay system from Bio-Rad. Further details in supplementary information.
Following stimulation with ligands, the cell culture medium was removed, clarified by centrifugation for 10 min at 14000×g and the concentration of TNFα, IL-6, IL-10, IL-12p40 and RANTES were measured using the Bio-Plex Pro Assay system from Bio-Rad. IL-1ra and IFNβ were measured using ELISA kits from R&D Systems.

[3] = test system: LPS-stimulated BMDMs; experiment: Expression of macrophage markers in LPS-stimulated BMDMs (qPCR); type: cell-based, mouse; details: for LPS-stimulated expression of SPHK1, LIGHT and Arginase 1: 500 nM
Method: FIGS. 10A to 10E. Inhibition of the LKB1-SIK-CRTC3-IL10 signaling axis drives the expression of markers of regulatory macrophages. (FIG. 10A) Effect of SIK inhibitors on the LPS-stimulated expression of LIGHT, SPHK1, Arg1 and IL-1ra (n=4, mean±SD). […] (FIG. 10C) Elevated expression of markers of regulatory macrophage in LKB1−/− macrophages. BMDMs were generated from LysM-Cre/LKB1+/+ and LysM-Cre/LKB1flox/flox mice and stimulated with 100 ng/ml LPS (mean±SD, n=3). (FIG. 10D) CRTC3 is required for the induction of markers of regulatory macrophages. […] LIGHT and SPHK1 mRNA was measured at 2 h and Arg1 at 8 h post-LPS stimulation (mean±SD, n=4). […] The experiment was carried out as in (FIG. 10D) except that BMDMs were generated from IL-10+/+ and IL-10−/− mice (mean±SD, n=4).
mRNA was extracted from cells using the RNeasy Micro Kit following the manufacturers' instructions (Qiagen). cDNA was generated from 1 μg of total RNA using the iScript cDNA synthesis kit and quantified by qPCR using the SsoFast EvaGreen Supermix on a CFX96 real time system (Bio-Rad Laboratories). The relative expression of each gene was calculated from Ct values using the Pfaffl method (5) and was normalized against the mRNA levels of 18S RNA or GAPDH. Results are reported relative to untreated control cells, which was set to 1. The following primers were used: […]

[4] = test system: CRTC3; experiment: IL-10 production in macrophages after siRNA knockdown of CRTC3; type: cell-based, mouse; details: TLR/LPS-stimulated macrophages
From the text: BMDMs were transfected with siRNA oligonucleotides against CRTC1, CRTC2, CRTC3 or non-targetting oligonucleotides as a negative control. […] Gene expression was quantified by qPCR and reported relative to mRNA levels measured in untreated cells (1.0). Knockdown efficiency was monitored by qPCR (mean±SD, n=4).
RNAi in Macrophages RAW264.7 cells or BMDMs were transfected with 100 pmol of SMARTpool siRNA oligos against CREB, CRTC1, CRTC2, CRTC3 or a non-targetting control (Dharmacon) using AMAXA nucleofection. Cells were cultured for 24 h prior to incubation with inhibitors for 1 h followed by stimulation for 1 h with 100 ng/ml LPS. Gene expression was measured by real-time quantitative PCR. For shRNA knockdown of SIKs, lentivirus was generated according to the manufacturer's instructions (Sigma) and RAW264.7 cells were infected using virus harvested 48 and 72 h post-transfection. Infected cells were selected using 3 μg/ml puromycin. QPCR

[5] = test system: MARK isoforms; experiment: Kinase assays, MARK isoforms; type: biochemical; details: in vitro
[6] = test system: Brain-Specific Kinases (BRSKs); experiment: Kinase assays, BRSKs; type: biochemical; details: in vitro
[7] = test system: IL-10−/− macrophages; experiment: Cytokine production in IL-10−/− macrophages; type: cell-based, mouse; details: all TLR ligands examined other than LPS
Method: FIGS. 2A to 2G. […] As in A except that cells were stimulated for 2 h with LPS.
IL-10^−/− mice on a C57Bl/6 background were purchased from The Jackson Laboratory, Maine, USA. C57Bl/6, and IL-10^−/− mice were bred at the University of Dundee under specific pathogen-free conditions in accordance with European Union regulations. Work was approved by local ethical review and was performed with a UK Home Office project license.
as §1, §2

Row | Compound | inhibition of AMPK-related kinases [1] | IL-10 secretion ([2]; LPS-stimulated macrophages) | pro-inflammatory cytokine secretion ([2]; LPS-stimulated macrophages) | LPS-stimulated expression of SPHK1, LIGHT and Arginase 1 ([3]; IL-10−/− macrophages) | LPS-stimulated expression of SPHK1, LIGHT and Arginase 1 ([3]; cells treated with CRTC3 siRNA) | effect of compound on IL-10 production after siRNA knockdown of CRTC3 [4] | inhibition of MARK isoforms [5] | inhibition of BRSKs [6] | IFNβ secretion ([2]; LPS) | IL-10 secretion ([2]; in response to TLR ligands) | IL-12p40 secretion ([2]; in response to TLR ligands) | secretion of pro-inflammatory cytokines [7] | IL-1ra mRNA ([3]; LPS-stimulated macrophages) | mRNAs of regulatory macrophage markers (arginase-1, SPHK1, LIGHT) ([3]; TLR/LPS-stimulated macrophages) | switch of macrophage programme from classically activated towards regulatory phenotype ([3]; quiescent macrophages)
1 | COc1ccc(N(C(=O)Nc2c(C)cccc2C)c2cc(Nc3ccc(N4CCN(C)CC4)cc3)ncn2)c(OC)c1 [HG-9-91-01, 1-(2,4-dimethoxyphenyl)-3-(2,6-dimethylphenyl)-1-(6-((4-(4-methylpiperazin-1-yl)phenyl)amino)pyrimidin-4-yl)urea] | did not inhibit any other member | stimulate IL-10 secretion in a dose dependent manner; also recorded: increased | greatly suppressed | greatly reduced | did not occur | abolishes the effects; also recorded: CRTC3 was required | – | – | – | – | – | – | – | – | –
2 | O=C(NCCCNc1nc(Nc2cccc(CN3CCOCC3)c2)ncc1C1CC1)C1CCC1 [MRT67307] | potently inhibits | stimulate IL-10 secretion in a dose dependent manner; also recorded: far higher levels of IL-10 | much lower levels of pro-inflammatory cytokines | – | – | completely suppressed the effects | comparable potency to the IKK-related kinases | did not inhibit | potently inhibited | high levels of IL-10 | low levels of IL-12p40 | failed to suppress | greatly increased | stimulating the production | switched their maturation programme from the classically activated route towards the regulatory phenotype
